Measurements as given in paper PMC5729604, “Dual inhibitors of hepatitis C virus and hepatocellular carcinoma: design, synthesis and docking studies” (Future Science OA, 2017).
In brackets after ≈: the same amount, converted by molar mass.

Experiments:
[1] = system: human HCC cell line HepG2; assay: cells; assay type: cell-based; details: Homo sapiens, HepG2, 72 h, 72 h, neutral red; Supplementary Table 2; read-out: Anticancer (HepG2) IC50
Protocol: The safe compounds on RBCs (5a-g, 5i-l, 5p-r, 5v-w, 6b-g) were screened for their potential anticancer activity against human HCC cell line HepG2. HepG2 cells were exposed to the test compounds, then viability of cells was measured using neutral red uptake assay as described by Borenfreund and Puerner. This assay depends on the fact that neutral red dye can be incorporated into the lysosomes of living cells providing a quantitative assay to the cytotoxic effects. The results were interpreted to calculate both the concentration causing 50% cancer cell death (IC50) of each compound and the maximum safe concentration that cause 100% viability (LD0; to be used in the in vitro anti-HCV testing) using GraphPad InStat 3.0 software (Figure 5 & Supplementary Table 2).
HepG2 cells were routinely maintained as adherent cell cultures in RPMI-1640 medium (Lonza Group Ltd, Basel, Switzerland) supplemented with 10% fetal bovine serum (FBS; Lonza, IL, USA) at 37°C in a humidified air incubator containing 5% CO2. Cells were subcultured for 2 weeks before assay. Cell viability was assessed using trypan blue exclusion method.
HepG2 cells were washed twice in RPMI-1640 medium supplemented with 200 μM L-glutamine (Lonza) and […] 4-(2-hydroxyethyl)-1-piperazineethanesulfonic acid (HEPES) buffer (Lonza). The cells were suspended at 3 × 10^4 cells/ml in RPMI culture medium (RPMI supplemented medium and 10% FBS). The appropriate number of cells was chosen to be 3 × 10^3 cells/well (100 μl of the prepared suspension), and the cells were left to adhere on the polystyrene 96-well plates in an incubator at 37°C, 5% CO2 and 95% humidity for 24 h. The cells were washed once using RPMI supplemented medium.
A 2 mg/ml stock solution of each compound was prepared in DMF and filtered using a 0.2 μM syringe filter. The desired concentrations (20, 10, 5, 2.5 and 1.25 μg/ml) were prepared using serial dilution in a 96-well plate. Compound wells were prepared by adding 100 μl of the previously prepared concentrations to a 100 μl of HepG2 cells suspension. Parallel concentrations of the solvent were prepared to be used as controls. 5-Fluorouracil was used as a positive control. Control wells were prepared by adding 100 μl culture media to a 100 μl of HepG2 cells suspension. Blank wells contained 200 μl of culture media only (without cells or compound solution). Each set of samples was pipetted in duplicate. The plate was gently shaken, then incubated at 37°C, 5% CO2 for 72 h.
After incubation, the plate was centrifuged (2000 r.p.m. for 10 min). The media were discarded by inversion over paper towels. A working solution (100 μg/ml) of neutral red stain (Bio Basic Inc, Markham, Canada) was prepared, and 100 μl of this solution was added to each well, then the plate was gently shaken. The plate was incubated at 37°C in humidified 5% CO2 for 3 h, and then centrifuged (2000 r.p.m. for 10 min). Excess dyes were discarded, and the cells were fixed with 100 μl fixing solution (0.5% formalin with 1% calcium chloride [Sigma-Aldrich]) for 1 min. Cells were destained in 100 μl destaining solution (50% ethanol with 1% glacial acetic acid [Sigma-Aldrich]) for 5 min by shaking. The stain intensity was assayed using automated microplate reader spectrophotometer adjusted at 490 nm. Surviving cell fraction was calculated according to the following equation: [drawing 3]
The results were interpreted to calculate both the concentration causing 50% cancer cell death (IC50) of each compound and the maximum safe concentration that cause 100% viability (LD0; to be used in the in vitro anti-HCV testing) using GraphPad InStat 3.0 software.

[2] = Solubility in DMF or DMSO under experimental conditions; assay type: physicochemical
In vitro hemolytic assay = assay type: cell-based; details: 2% erythrocyte suspension (washed red blood cells); 2% erythrocyte suspension, 3 μl of 1 mg/ml compound in DMF per 240 μl well, 37°C 30 min, absorbance 405 nm; <5% considered nontoxic
Protocol: (§1) Compounds 5a-x and 6a-h were subjected to the in vitro hemolytic assay to identify those which cause hemolysis to red blood cells (RBCs). Consequently, these compounds would be toxic in vivo so they were excluded from further biological screening.
(§2) Blood samples (5 ml) were freshly collected into heparinized tubes and were centrifuged (1000 r.p.m. for 20 min) at room temperature. The plasma and buffy coat were removed by Pasteur pipette, and the collected erythrocytes were washed three-times using isotonic buffer solution (0.9% sodium chloride [Sigma-Aldrich, MO, USA]) by centrifugation (2500 r.p.m. for 10 min). A two percent erythrocyte suspension was prepared to be used in the assay.
(§3) A 1 mg/ml stock solution of each compound was prepared in DMF (Sigma-Aldrich). Compound wells were prepared by adding 3 μl of the compound solution to 117 μl isotonic buffer solution and 120 μl erythrocyte suspension. Compounds color blank wells were prepared by adding 3 μl compound to 237 μl isotonic buffer solution. Solvent (DMF) wells were prepared by adding 3 μl DMF to 117 μl isotonic buffer solution and 120 μl erythrocyte suspension. Positive control wells (representing 100% hemolysis) were prepared by adding 120 μl erythrocyte suspension to 120 μl distilled water, while negative control wells (representing 0% hemolysis) were prepared by adding 120 μl erythrocyte suspension to 120 μl isotonic buffer solution. Finally, blank wells contained only 240 μl isotonic buffer solution. Each set of samples was pipetted in triplicate. The microtiter plate was then shaken well on bench, incubated at 37°C for 30 min then centrifuged (2000 rpm for 5 min) at room temperature.
(§4) A fraction of the supernatant layer (150 μl) of each well was transferred to another 96-well microtiter plate. Erythrocyte hemolysis was determined by reading the absorbance (A) of liberated hemoglobin at 405 nm in the supernatant fraction compared with the 100% hemolysis of erythrocyte. The average value was calculated from triplicate assay: [drawing 2]

red blood cells (RBCs) = assay: In vitro hemolytic assay; assay type: cell-based; details: <5% hemolysis nontoxic, 5% or more toxic and hemolytic
Protocol: as §1, §2, §3, §4

SMILES	solubility in DMF or DMSO [2]	melting point [°C]	hemolysis at 30 min, 12.5 µg/ml (In vitro hemolytic assay) [%]	also measured
O=c1[nH]cc(F)c(=O)[nH]1 [Compound 5-FU, 5-Fluorouracil, reference compound]				IC50 [1]: 0.9 µg/mL (≈ 6.92 µM)
COc1ccc(N2C(=O)C(=Cc3cn(-c4ccccc4)nc3-c3ccc(Cl)cc3)SC2=NN=C(C)c2cc3ccccc3o2)cc1 [Compound 5h, 2-[1-(Benzofuran-2-yl)ethylidenehydrazono]-5-{[3-(4-chlorophenyl)-1-phenyl-1H-pyrazol-4-yl]methylene}-3-(4-methoxyphenyl)thiazolidin-4-one]	could not be dissolved	280 to 282		
CC(=NN=C1SC(=Cc2cn(-c3ccccc3)nc2-c2ccccc2)C(=O)N1c1ccccc1)c1nc2ccccc2[nH]1 [Compound 5m, 2-[1-(1H-Benzimidazole-2-yl)ethylidenehydrazono]-5-[(1,3-Diphenyl-1H-pyrazol-4-yl)methylene]-3-phenylthiazolidin-4-one]		> 300	11.7	
CC(=NN=C1SC(=Cc2cn(-c3ccccc3)nc2-c2ccc(Cl)cc2)C(=O)N1c1ccccc1)c1nc2ccccc2[nH]1 [Compound 5n, 2-[1-(1H-Benzimidazole-2-yl)ethylidenehydrazono]-5-{[3-(4-chlorophenyl)-1-phenyl-1H-pyrazol-4-yl]methylene}-3-phenylthiazolidin-4-one]		> 300	9.52	
COc1ccc(-c2nn(-c3ccccc3)cc2C=C2SC(=NN=C(C)c3nc4ccccc4[nH]3)N(c3ccccc3)C2=O)cc1 [Compound 5o, 2-[1-(1H-Benzimidazole-2-yl)ethylidenehydrazono]-5-{[3-(4-methoxyphenyl)-1-phenyl-1H-pyrazol-4-yl]methylene}-3-phenylthiazolidin-4-one]		> 300	15.1	
COc1ccc(N2C(=O)C(=Cc3cn(-c4ccccc4)nc3-c3ccccc3)SC2=NN=C(C)c2nc3ccccc3[nH]2)cc1 [Compound 5s, 2-[1-(1H-Benzimidazole-2-yl)ethylidenehydrazono]-5-[(1,3-Diphenyl-1H-pyrazol-4-yl)methylene]-3-(4-methoxyphenyl)thiazolidin-4-one]	could not be dissolved			
COc1ccc(N2C(=O)C(=Cc3cn(-c4ccccc4)nc3-c3ccc(Cl)cc3)SC2=NN=C(C)c2nc3ccccc3[nH]2)cc1 [Compound 5t, 2-[1-(1H-Benzimidazole-2-yl)ethylidenehydrazono]-5-{[3-(4-chlorophenyl)-1-phenyl-1H-pyrazol-4-yl]methylene}-3-(4-methoxyphenyl)thiazolidin-4-one]	could not be dissolved			
COc1ccc(-c2nn(-c3ccccc3)cc2C=C2SC(=NN=C(C)c3nc4ccccc4[nH]3)N(c3ccc(OC)cc3)C2=O)cc1 [Compound 5u, 2-[1-(1H-Benzimidazole-2-yl)ethylidenehydrazono]-5-{[3-(4-methoxyphenyl)-1-phenyl-1H-pyrazol-4-yl]methylene}-3-(4-methoxyphenyl)thiazolidin-4-one]	could not be dissolved			
COc1ccc(-c2nn(-c3ccccc3)cc2C=C2SC(=NN=C(C)c3nc4ccccc4[nH]3)N(C3CCCCC3)C2=O)cc1 [Compound 5x, 2-[1-(1H-Benzimidazole-2-yl)ethylidenehydrazono]-5-{[3-(4-methoxyphenyl)-1-phenyl-1H-pyrazol-4-yl]methylene}-3-cyclohexylthiazolidin-4-one]		215 to 217	8.74	toxicity to RBCs (hemolysis), in words (red blood cells (RBCs)): cause hemolysis to RBCs
CC(=NN=C1SC(=C2C(=O)Nc3ccccc32)C(=O)N1c1ccccc1)c1cc2ccccc2o1 [Compound 6a, 2-[1-(Benzofuran-2-yl)ethylidenehydrazono]-5-(2-oxoindolin-3-ylidene)-3-phenylthiazolidin-4-one]			11.2	toxicity to RBCs (hemolysis), in words (red blood cells (RBCs)): cause hemolysis to RBCs
CC(=NN=C1SC(=C2C(=O)Nc3ccccc32)C(=O)N1C1CCCCC1)c1nc2ccccc2[nH]1 [Compound 6h, 2-[1-(1H-Benzimidazole-2-yl)ethylidenehydrazono]-5-(2-oxoindolin-3-ylidene)-3-cyclohexylthiazolidin-4-one]			7.56	toxicity to RBCs (hemolysis), in words (red blood cells (RBCs)): cause hemolysis to RBCs
